Read-outs that look alike come from different tables or passages of the source.
Experiments:
[1] = biological target: T1, AKT2 (Homo sapiens, UniProt P31751); test: Live cell AKT2 target engagement by NanoBRET competitive probe displacement in HEK293 cells; type: binding; conditions: 2 h at 37° C., read-out: AKT2 IC50
T1 construct: expressed in transfected cells; host or cells: HEK293

[2] = biological target: T2, AKT1 WT (Homo sapiens, UniProt P31749); test: Live cell AKT1 WT target engagement by NanoBRET competitive probe displacement in HEK293 cells; type: binding; conditions: 2 h at 37° C., read-out: AKT1 WT IC50
T2 construct: expressed in transfected cells; host or cells: HEK293
T2 sequence (P31749 whole entry): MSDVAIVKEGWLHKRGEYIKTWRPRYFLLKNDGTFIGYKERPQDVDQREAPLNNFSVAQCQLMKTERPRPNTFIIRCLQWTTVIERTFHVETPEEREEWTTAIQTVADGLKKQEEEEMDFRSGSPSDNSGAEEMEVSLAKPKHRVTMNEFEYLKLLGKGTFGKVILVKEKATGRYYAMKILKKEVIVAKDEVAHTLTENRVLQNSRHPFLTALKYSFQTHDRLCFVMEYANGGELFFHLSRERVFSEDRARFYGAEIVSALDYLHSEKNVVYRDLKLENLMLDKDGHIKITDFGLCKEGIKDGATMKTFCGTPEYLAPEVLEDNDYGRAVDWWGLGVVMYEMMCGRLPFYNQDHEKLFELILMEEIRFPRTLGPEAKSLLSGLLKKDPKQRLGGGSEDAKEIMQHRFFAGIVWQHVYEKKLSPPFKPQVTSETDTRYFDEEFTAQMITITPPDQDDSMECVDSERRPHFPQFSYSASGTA

[3] = NanoBRET live cell target engagement, HEK293 cells
[4] = NanoBRET competitive probe displacement, live HEK293 cells

T1 sequence (P31751 whole entry): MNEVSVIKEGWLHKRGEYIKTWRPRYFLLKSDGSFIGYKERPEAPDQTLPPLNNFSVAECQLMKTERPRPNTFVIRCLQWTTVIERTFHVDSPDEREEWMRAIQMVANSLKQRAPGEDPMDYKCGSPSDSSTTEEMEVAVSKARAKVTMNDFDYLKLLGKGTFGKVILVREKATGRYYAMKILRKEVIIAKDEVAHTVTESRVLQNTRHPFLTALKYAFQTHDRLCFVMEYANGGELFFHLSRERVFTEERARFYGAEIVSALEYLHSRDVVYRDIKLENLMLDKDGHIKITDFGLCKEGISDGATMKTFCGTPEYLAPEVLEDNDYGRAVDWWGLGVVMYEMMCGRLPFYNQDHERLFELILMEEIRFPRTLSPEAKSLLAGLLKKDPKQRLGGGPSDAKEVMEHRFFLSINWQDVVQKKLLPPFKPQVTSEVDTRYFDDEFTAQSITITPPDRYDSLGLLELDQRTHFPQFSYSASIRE

IC50 [1, 3] | IC50 [2, 3] | IC50 [1, 4] | IC50 [2, 4] | SMILES
2220 nM | 120 nM |  |  | Cc1ccc(C(C)N[C@H]2CCc3cc(-n4c(-c5cccnc5N)nc5ccc(-n6cccn6)nc54)ccc32)cn1 (stereo partly shown) [Compound 153]
 |  | 1090 nM | 17.8 nM | Cc1cnc2ccc(C(=O)N[C@H]3CCc4cc(-n5c(-c6cccnc6N)nc6ccc(-n7nccn7)nc65)ccc43)cn12 [Compound 398]
> 10000 nM | > 1000 nM |  |  | Nc1ncccc1-c1nc2ccc(-n3cccn3)nc2n1-c1ccc2c(c1)CC[C@H]2n1ccnn1 [Compound 227]
 |  | 7070 nM | 418 nM | Nc1ncccc1-c1nc2ccc(-n3cccn3)nc2n1-c1ccc2c(c1)CC[C@@H]2NC1CCc2nc(C(F)F)sc21 (stereo partly shown) [Compound 600]
 |  | 1470 nM | 21.7 nM | Nc1ncccc1-c1nc2ccc(-n3nccn3)nc2n1-c1ccc2c(c1)CC[C@@H]2NC(=O)c1ccns1 [Compound 413]
 |  | 262 nM | 14.6 nM | COc1cc2c(cn1)CCC2N[C@H]1CCc2cc(-n3c(-c4cccnc4N)nc4ccc(-n5cccn5)nc43)ccc21 (stereo partly shown) [Compound 510]
 |  | 900 nM | 16.7 nM | Cc1ccc(C(=O)N[C@H]2CCc3cc(-n4c(-c5ccccc5)nc5ccc(-c6ccn(C7CC7)n6)nc54)ccc32)cn1 [Compound 431, (S)—N-(5-(5-(1-cyclopropyl-1H-pyrazol-3-yl)-2-phenyl-3H-imidazo[4,5-b]pyridin-3-yl)-2,3-dihydro-1H-inden-1-yl)-6-methylnicotinamide]
34.6 nM | 10.6 nM |  |  | COc1cc(-n2cccn2)nc2c1nc(-c1cccnc1N)n2-c1ccc2c(c1)CC[C@@H]2NC(=O)c1ccc(C(F)F)nc1 [Compound 122, (S)—N-(5-(2-(2-aminopyridin-3-yl)-7-methoxy-5-(1H-pyrazol-1-yl)-3H-imidazo[4,5-b]pyridin-3-yl)-2,3-dihydro-1H-inden-1-yl)-6-(difluoromethyl)nicotinamide]
468 nM | 18.3 nM |  |  | Cn1nc(C(=O)N[C@H]2CCc3cc(-n4c(-c5cccnc5N)nc5ccc(-n6cccn6)nc54)ccc32)cc1C(F)F [Compound 266]
 |  | 723 nM | 27.6 nM | Cn1ccc(N2CCC(N[C@H]3CCc4cc(-n5c(-c6cccnc6N)nc6ccc(-n7ccc(C8CCOCC8)n7)nc65)ccc43)CC2)n1 [Compound 549]
8.38 nM | 10.8 nM |  |  | CC(=O)Nc1ccc(C(=O)N[C@H]2CCc3cc(-n4c(-c5cccnc5N)nc5ccc(-n6cccn6)nc54)ccc32)cc1F [Compound 309]
722 nM | 39.3 nM |  |  | Nc1ncccc1-c1nc2ccc(-n3cccn3)nc2n1-c1ccc2c(c1)CC[C@@H]2n1cc(Cc2ccccc2)nn1 [Compound 156]
 |  | 650 nM | 16.8 nM | CN(C)c1ccn(-c2ccc3nc(-c4cccnc4N)n(-c4ccc5c(c4)CC[C@@H]5NC4CCN(c5ccn(C)n5)CC4)c3n2)n1 [Compound 589]
6260 nM | 68.2 nM |  |  | Nc1ncccc1-c1nc2ccc(-n3cccn3)nc2n1-c1ccc2c(c1)CC[C@@H]2n1cc(C2COC2)nn1 [Compound 220]
1720 nM | 45.6 nM |  |  | Cc1cnc(-c2ccc3nc(-c4cccnc4N)n(-c4ccc5c(c4)CC[C@@H]5n4ccnn4)c3n2)s1 [Compound 303]
> 10000 nM | 170 nM |  |  | Cc1ccc2nc(-c3cccnc3N)n(-c3ccc4c(c3)CC[C@@H]4NC(=O)c3cccnc3C)c2n1 [Compound 145]
389 nM | 27.8 nM |  |  | Cc1csc(-c2ccc3nc(-c4cccnc4N)n(-c4ccc5c(c4)CC[C@@H]5NC(=O)c4ccn(C)n4)c3n2)n1 [Compound 374, (S)—N-(5-(2-(2-aminopyridin-3-yl)-5-(4-methylthiazol-2-yl)-3H-imidazo[4,5-b]pyridin-3-yl)-2,3-dihydro-1H-inden-1-yl)-1-methyl-1H-pyrazole-3-carboxamide]
 |  | 507 nM | 38.9 nM | Nc1ncccc1-c1nc2ccc(-n3ccc(OC(F)F)n3)nc2n1-c1ccc2c(c1)CC[C@@H]2NC(=O)c1cnc(C(F)F)s1 [Compound 534]
219 nM | 11.5 nM |  |  | Cn1ccc(C#Cc2cc(C(=O)N[C@H]3CCc4cc(-n5c(-c6cccnc6N)nc6ccc(-n7cccn7)nc65)ccc43)ccn2)n1 [Compound 182]
 |  | 621 nM | 8.2 nM | Fc1ccccc1-c1nc2ccc(-n3cccn3)nc2n1-c1ccc2c(c1)CC[C@@H]2n1cnnc1 [Compound 529]
305 nM | 17.7 nM |  |  | COc1cc(C(=O)N[C@H]2CCc3cc(-n4c(-c5cccnc5N)nc5ccc(-n6cccn6)nc54)ccc32)ccc1F [Compound 336]
 |  | 1300 nM | 57.7 nM | Nc1ncccc1-c1nc2ccc(-c3ccn(C(F)F)n3)nc2n1-c1ccc2c(c1)CC[C@@H]2NC1CCN(C(=O)C2CC2)CC1 [Compound 434]
 |  | > 10000 nM | > 1000 nM | Nc1ncccc1-c1nc2ccc(-n3cccn3)nc2n1-c1ccc2c(c1)CC[C@@H]2NC1CC2(CCCN2c2ccccn2)C1 (stereo partly shown) [Compound 465]
 |  | 9260 nM | 339 nM | CS(=O)(=O)c1ccn(-c2ccc3nc(-c4cccnc4N)n(-c4ccc5c(c4)CC[C@@H]5NC4CCN(C(=O)C5CC5)CC4)c3n2)n1 [Compound 554]

IC50 [1, 3] | IC50 [2, 3] | IC50 [1, 4] | IC50 [2, 4] | SMILES
284 nM | 19.8 nM |  |  | Nc1ncccc1-c1nc2ccc(N3CCOCC3)nc2n1-c1ccc2c(c1)CC[C@@H]2NC(=O)c1ccc(C(F)F)nc1 [Compound 136]
36 nM | 6.39 nM |  |  | Nc1ncccc1-c1nc2ccc(-n3cccn3)nc2n1-c1ccc2c(c1)CC[C@@H]2NC(=O)c1cnc2c(c1)COC2 [Compound 106]
 |  | 4470 nM | 198 nM | Nc1ncccc1-c1nc2ccc(-n3cccn3)nc2n1-c1ccc2c(c1)CC[C@@H]2NC1CCC2(CC1)CN(c1ccccn1)C2 [Compound 450]
521 nM | 40.5 nM |  |  | COc1ncncc1C(=O)N[C@H]1CCc2cc(-n3c(-c4cccnc4N)nc4ccc(-n5cccn5)nc43)ccc21 [Compound 157]
 |  | 808 nM | 77.4 nM | CC(C)(O)c1ccn(-c2ccc3nc(-c4cccnc4N)n(-c4ccc5c(c4)CC[C@@H]5NC4CCN(C(=O)C5CC5)CC4)c3n2)n1 [Compound 569]
113 nM | 9.5 nM |  |  | Nc1ncccc1-c1nc2ccc(-n3cccn3)nc2n1-c1ccc2c(c1)CC[C@@H]2n1cc(-c2ccncc2)nn1 [Compound 198]
4400 nM | 643 nM |  |  | CN(C)Cc1cn([C@H]2CCc3cc(-n4c(-c5cccnc5N)nc5ccc(-n6cccn6)nc54)ccc32)nn1 [Compound 218]
312 nM | 13.9 nM |  |  | COc1nccc(C(=O)N[C@H]2CCc3cc(-n4c(-c5cccnc5N)nc5ccc(-n6nccn6)nc54)ccc32)c1C [Compound 380]
540 nM | 19.5 nM |  |  | Nc1ncccc1-c1nc2ccc(-n3cccn3)nc2n1-c1ccc2c(c1)CC[C@@H]2NC(=O)c1cccnc1C(F)F [Compound 79]
100 nM | 11.6 nM |  |  | Nc1ncccc1-c1nc2c(F)cc(-n3cccn3)nc2n1-c1ccc2c(c1)CC[C@@H]2NC(=O)c1ccc(C(F)F)nc1 [Compound 165, (S)—N-(5-(2-(2-aminopyridin-3-yl)-7-fluoro-5-(1H-pyrazol-1-yl)-3H-imidazo[4,5-b]pyridin-3-yl)-2,3-dihydro-1H-inden-1-yl)-6-(difluoromethyl)nicotinamide]
214 nM | 12.8 nM |  |  | Nc1ncccc1-c1nc2ccc(-n3nccn3)nc2n1-c1ccc2c(c1)CC[C@@H]2NC(=O)c1cc(F)c2[nH]ncc2c1 [Compound 383]
 |  | 3550 nM | 421 nM | CN(C)CC#Cc1ccc2nc(-c3cccnc3N)n(-c3ccc4c(c3)CC[C@@H]4NC(=O)c3ccc(C(F)F)nc3)c2n1 [Compound 407]
 |  | 320 nM | 17.2 nM | Nc1ncccc1-c1nc2ccc(C#CC3CC3)nc2n1-c1ccc2c(c1)CC[C@@H]2n1cnnc1 [Compound 528]
 |  | 2300 nM | 91.1 nM | Nc1ncccc1-c1nc2ccc(C#CC3COC3)nc2n1-c1ccc2c(c1)CC[C@@H]2NC(=O)c1ccc(C(F)F)nc1 [Compound 408]
296 nM | 15.1 nM |  |  | CNS(=O)(=O)c1ccc(C(=O)N[C@H]2CCc3cc(-n4c(-c5cccnc5N)nc5ccc(-n6cccn6)nc54)ccc32)cc1 [Compound 308]
 |  | 1280 nM | 18.9 nM | Nc1ncccc1-c1nc2ccc(-n3ccc(OC4CC4)n3)nc2n1-c1ccc2c(c1)CC[C@@H]2NC1CCN(C(=O)C2CC2)CC1 [Compound 497]
 |  | 40.5 nM | 3.8 nM | CN1CCN(c2ccn(-c3ccc4nc(-c5cccnc5N)n(-c5ccc6c(c5)CC[C@@H]6NC5CCN(c6ccn(C)n6)CC5)c4n3)n2)CC1 [Compound 598]
 |  | 167 nM | 19.2 nM | Nc1ncccc1-c1nc2ccc(-n3cccn3)nc2n1-c1ccc2c(c1)CC[C@@H]2NC1CCc2cnccc2C1 (stereo partly shown) [Compound 464]
 |  | 3780 nM | 805 nM | C#Cc1cc(-n2nccn2)nc2c1nc(-c1cccnc1N)n2-c1ccc2c(c1)CC[C@@H]2NC(=O)c1ccc(C(F)F)nc1 [Compound 583]
151 nM | 8.07 nM |  |  | Nc1ncccc1-c1nc2ccc(-n3cccn3)nc2n1-c1ccc2c(c1)CC[C@@H]2NC(=O)c1cnc(C(F)F)s1 [Compound 376]
1780 nM | 121 nM |  |  | Cn1ccc(CN[C@H]2CCc3cc(-n4c(-c5cccnc5N)nc5ccc(-n6cccn6)nc54)ccc32)n1 [Compound 206]
 |  | 3090 nM | 93.3 nM | Nc1ncccc1-c1nc2ccc(-n3ccc(OC(F)F)n3)nc2n1-c1ccc2c(c1)CC[C@@H]2NC1[C@@H]2COC[C@H]1CN(C(=O)C1CC1)C2 (stereo partly shown) [Compound 561]
 |  | 458 nM | 8.72 nM | Nc1ncccc1-c1nc2ccc(-n3ccc(Oc4cccnc4)n3)nc2n1-c1ccc2c(c1)CC[C@@H]2NC1CCN(C(=O)C2CC2)CC1 [Compound 568]
